Assays:
PKCa = PKCa (Homo sapiens (Human), UniProt P17252); experiment: Kinase Selectivity Profiling General Panel (ADP-Glo); assay type: biochemical; conditions: 1 μM compound, read-out: Percent enzyme activity inhibition, PKCa
Method: (§1) After this incubation, 5 μl of ADP-Glo™ reagent was added to 5 μl reaction and incubated for 40 minutes. Then, 10 μl of Kinase Detection Reagent added to all assay wells in the assay plate and incubated at room temperature for 30 minutes. […]

p38a = p38a (Homo sapiens (Human), UniProt Q16539); experiment: as above; assay type: biochemical; conditions: 1 μM compound, read-out: Percent enzyme activity inhibition, p38a
Method: as §1

AKT1 = AKT1 (Homo sapiens (Human), UniProt P31749); experiment: as above; assay type: biochemical; conditions: 1 μM compound, read-out: Percent enzyme activity inhibition, AKT1
Method: as §1

CK1g1 = CK1g1 (Homo sapiens (Human), UniProt Q9HCP0); experiment: as above; assay type: biochemical; conditions: 1 μM compound, read-out: Percent enzyme activity inhibition, CK1g1
Sequence of CK1g1 (Q9HCP0 whole entry): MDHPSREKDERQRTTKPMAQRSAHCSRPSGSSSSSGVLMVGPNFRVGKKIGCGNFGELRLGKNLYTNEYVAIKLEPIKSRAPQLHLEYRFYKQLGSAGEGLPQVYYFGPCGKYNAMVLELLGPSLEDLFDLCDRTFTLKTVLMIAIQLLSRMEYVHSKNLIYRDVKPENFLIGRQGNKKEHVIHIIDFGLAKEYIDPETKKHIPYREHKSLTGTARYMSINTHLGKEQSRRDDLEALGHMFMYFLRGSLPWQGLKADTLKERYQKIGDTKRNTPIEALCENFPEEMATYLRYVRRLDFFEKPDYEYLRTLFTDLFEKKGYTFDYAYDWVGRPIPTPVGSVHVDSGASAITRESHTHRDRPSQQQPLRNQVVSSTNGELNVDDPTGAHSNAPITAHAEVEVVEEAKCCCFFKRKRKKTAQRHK
Method: as §1

ROCK1 = ROCK1 (Homo sapiens (Human), UniProt Q13464); experiment: as above; assay type: biochemical; conditions: 1 μM compound, read-out: Percent enzyme activity inhibition, ROCK1
Sequence of ROCK1 (Q13464 whole entry): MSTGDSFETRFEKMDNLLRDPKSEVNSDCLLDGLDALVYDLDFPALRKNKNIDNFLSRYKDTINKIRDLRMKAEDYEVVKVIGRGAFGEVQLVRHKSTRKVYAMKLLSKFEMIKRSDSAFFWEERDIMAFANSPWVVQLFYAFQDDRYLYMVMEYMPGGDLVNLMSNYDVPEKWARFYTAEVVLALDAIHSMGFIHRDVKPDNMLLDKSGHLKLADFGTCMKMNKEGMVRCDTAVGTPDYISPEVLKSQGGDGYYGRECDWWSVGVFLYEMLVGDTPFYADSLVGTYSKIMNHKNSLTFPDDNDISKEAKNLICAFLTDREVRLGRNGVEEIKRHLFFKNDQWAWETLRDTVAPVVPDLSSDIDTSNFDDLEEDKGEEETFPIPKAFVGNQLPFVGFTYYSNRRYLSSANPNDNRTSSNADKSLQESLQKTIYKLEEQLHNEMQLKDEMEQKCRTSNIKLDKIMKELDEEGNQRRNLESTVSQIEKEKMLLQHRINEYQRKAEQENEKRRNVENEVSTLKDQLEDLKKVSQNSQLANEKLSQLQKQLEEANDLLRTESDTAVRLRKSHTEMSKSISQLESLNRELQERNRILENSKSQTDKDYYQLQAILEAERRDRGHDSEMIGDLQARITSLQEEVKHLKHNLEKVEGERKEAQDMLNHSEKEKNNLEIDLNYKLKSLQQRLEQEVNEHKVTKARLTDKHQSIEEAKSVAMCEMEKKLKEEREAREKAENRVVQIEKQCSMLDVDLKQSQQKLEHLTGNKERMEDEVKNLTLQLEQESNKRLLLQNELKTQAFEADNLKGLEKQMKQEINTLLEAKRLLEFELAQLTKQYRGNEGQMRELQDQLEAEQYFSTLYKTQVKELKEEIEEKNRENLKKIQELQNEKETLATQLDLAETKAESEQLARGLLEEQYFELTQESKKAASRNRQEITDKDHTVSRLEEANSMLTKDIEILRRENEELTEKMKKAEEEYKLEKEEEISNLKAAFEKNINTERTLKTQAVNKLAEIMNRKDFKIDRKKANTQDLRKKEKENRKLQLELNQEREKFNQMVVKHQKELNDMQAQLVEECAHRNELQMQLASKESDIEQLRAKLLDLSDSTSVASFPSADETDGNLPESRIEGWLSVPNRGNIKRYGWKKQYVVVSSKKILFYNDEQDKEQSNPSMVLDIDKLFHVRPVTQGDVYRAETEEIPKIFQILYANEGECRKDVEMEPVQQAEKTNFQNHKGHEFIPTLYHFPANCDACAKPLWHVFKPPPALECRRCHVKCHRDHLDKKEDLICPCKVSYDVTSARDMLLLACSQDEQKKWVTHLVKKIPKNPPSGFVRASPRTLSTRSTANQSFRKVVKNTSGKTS
Method: as §1

Aurora A = Aurora A (Homo sapiens (Human), UniProt O14965); experiment: as above; assay type: biochemical; conditions: 1 μM compound, read-out: Percent enzyme activity inhibition, Aurora A
Sequence of Aurora A (O14965 whole entry): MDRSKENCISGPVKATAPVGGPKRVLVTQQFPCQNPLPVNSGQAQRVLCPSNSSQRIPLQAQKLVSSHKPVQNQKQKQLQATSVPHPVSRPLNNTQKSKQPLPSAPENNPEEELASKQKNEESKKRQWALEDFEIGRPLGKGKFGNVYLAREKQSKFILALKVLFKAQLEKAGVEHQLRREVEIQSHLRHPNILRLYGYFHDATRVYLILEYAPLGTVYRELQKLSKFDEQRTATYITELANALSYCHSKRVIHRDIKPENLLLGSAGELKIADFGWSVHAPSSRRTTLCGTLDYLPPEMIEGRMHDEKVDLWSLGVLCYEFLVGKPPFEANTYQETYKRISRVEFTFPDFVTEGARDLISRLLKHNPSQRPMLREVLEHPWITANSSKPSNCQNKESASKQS
Method: as §1

SYK = SYK (Homo sapiens (Human), UniProt P43405); experiment: as above; assay type: biochemical; conditions: 1 μM compound, read-out: Percent enzyme activity inhibition, SYK
Method: as §1

CK2a1 = CK2a1 (Homo sapiens (Human), UniProt P68400); experiment: as above; assay type: biochemical; conditions: 1 μM compound, read-out: Percent enzyme activity inhibition, CK2a1
Method: as §1

DAPK1 = DAPK1 (Homo sapiens (Human), UniProt P53355); experiment: as above; assay type: biochemical; conditions: 1 μM compound, read-out: Percent enzyme activity inhibition, DAPK1
Method: as §1

GSK3b = GSK3b (Homo sapiens (Human), UniProt P49841); experiment: as above; assay type: biochemical; conditions: 1 μM compound, read-out: Percent enzyme activity inhibition, GSK3b
Sequence of GSK3b (P49841 whole entry): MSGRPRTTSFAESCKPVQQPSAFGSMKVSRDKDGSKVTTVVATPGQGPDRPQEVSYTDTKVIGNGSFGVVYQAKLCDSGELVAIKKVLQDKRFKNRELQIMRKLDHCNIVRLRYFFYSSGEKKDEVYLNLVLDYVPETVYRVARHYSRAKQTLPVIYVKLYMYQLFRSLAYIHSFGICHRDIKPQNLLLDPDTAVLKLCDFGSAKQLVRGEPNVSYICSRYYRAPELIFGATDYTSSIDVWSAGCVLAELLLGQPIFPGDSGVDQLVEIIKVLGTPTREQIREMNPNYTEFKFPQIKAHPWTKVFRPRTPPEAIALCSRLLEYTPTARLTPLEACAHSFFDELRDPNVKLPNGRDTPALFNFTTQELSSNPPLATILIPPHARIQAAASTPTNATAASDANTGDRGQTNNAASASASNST
Method: as §1

FGFR1 = FGFR1 (Homo sapiens (Human), UniProt P11362); experiment: as above; assay type: biochemical; conditions: 1 μM compound, read-out: Percent enzyme activity inhibition, FGFR1
Method: as §1

IKKb = IKKb (Homo sapiens (Human), UniProt O14920); experiment: as above; assay type: biochemical; conditions: 1 μM compound, read-out: Percent enzyme activity inhibition, IKKb
Method: as §1

MAPKAPK2 = MAPKAPK2 (Homo sapiens (Human), UniProt P49137); experiment: as above; assay type: biochemical; conditions: 1 μM compound, read-out: Percent enzyme activity inhibition, MAPKAPK2
Sequence of MAPKAPK2 (P49137 whole entry): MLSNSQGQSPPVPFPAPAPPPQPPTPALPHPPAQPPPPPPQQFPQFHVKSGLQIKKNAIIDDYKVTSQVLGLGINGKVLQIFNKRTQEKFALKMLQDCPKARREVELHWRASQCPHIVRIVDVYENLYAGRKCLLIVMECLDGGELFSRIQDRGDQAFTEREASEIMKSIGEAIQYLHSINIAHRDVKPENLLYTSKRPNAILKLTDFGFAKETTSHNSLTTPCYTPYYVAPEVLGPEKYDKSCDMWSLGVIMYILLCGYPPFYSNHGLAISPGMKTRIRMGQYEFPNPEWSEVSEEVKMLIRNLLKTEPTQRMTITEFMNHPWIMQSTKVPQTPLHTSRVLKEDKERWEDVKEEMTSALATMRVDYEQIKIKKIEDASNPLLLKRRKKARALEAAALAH
Method: as §1

CK1a1 = CK1a1 (Homo sapiens (Human), UniProt P48729); experiment: as above; assay type: biochemical; conditions: 1 μM compound, read-out: Percent enzyme activity inhibition, CK1a1
Sequence of CK1a1 (P48729 whole entry): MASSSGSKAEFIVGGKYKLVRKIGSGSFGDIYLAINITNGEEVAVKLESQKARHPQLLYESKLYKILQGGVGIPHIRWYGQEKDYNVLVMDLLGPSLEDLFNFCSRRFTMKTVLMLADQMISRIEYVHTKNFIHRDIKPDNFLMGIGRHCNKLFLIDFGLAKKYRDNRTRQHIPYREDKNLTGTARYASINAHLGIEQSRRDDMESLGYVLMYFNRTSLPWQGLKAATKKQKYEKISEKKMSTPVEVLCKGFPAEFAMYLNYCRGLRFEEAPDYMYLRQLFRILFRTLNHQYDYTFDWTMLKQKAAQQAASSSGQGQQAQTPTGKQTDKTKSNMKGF
Method: as §1

LCK = LCK (Homo sapiens (Human), UniProt P06239); experiment: as above; assay type: biochemical; conditions: 1 μM compound, read-out: Percent enzyme activity inhibition, LCK
Sequence of LCK (P06239 whole entry): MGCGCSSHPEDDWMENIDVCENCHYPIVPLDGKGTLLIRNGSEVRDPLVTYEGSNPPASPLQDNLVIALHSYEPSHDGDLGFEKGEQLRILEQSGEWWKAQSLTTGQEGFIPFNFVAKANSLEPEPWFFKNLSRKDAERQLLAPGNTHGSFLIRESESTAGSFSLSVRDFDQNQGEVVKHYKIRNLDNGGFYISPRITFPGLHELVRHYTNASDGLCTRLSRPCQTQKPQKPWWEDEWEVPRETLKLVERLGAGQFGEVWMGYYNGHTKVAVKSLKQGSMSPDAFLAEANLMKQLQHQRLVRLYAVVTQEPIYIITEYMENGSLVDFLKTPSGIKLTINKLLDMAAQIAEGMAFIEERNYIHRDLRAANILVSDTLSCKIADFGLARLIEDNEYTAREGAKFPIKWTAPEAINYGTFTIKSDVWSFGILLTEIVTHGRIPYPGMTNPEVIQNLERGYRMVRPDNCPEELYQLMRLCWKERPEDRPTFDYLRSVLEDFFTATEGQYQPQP
Method: as §1

MINK1 = MINK1 (Homo sapiens (Human), UniProt Q8N4C8); experiment: as above; assay type: biochemical; conditions: 1 μM compound, read-out: Percent enzyme activity inhibition, MINK1
Method: as §1

CAMK4 = CAMK4 (Homo sapiens (Human), UniProt Q16566); experiment: as above; assay type: biochemical; conditions: 1 μM compound, read-out: Percent enzyme activity inhibition, CAMK4
Method: as §1

CHK1 = CHK1 (Homo sapiens (Human), UniProt O14757); experiment: as above; assay type: biochemical; conditions: 1 μM compound, read-out: Percent enzyme activity inhibition, CHK1
Sequence of CHK1 (O14757 whole entry): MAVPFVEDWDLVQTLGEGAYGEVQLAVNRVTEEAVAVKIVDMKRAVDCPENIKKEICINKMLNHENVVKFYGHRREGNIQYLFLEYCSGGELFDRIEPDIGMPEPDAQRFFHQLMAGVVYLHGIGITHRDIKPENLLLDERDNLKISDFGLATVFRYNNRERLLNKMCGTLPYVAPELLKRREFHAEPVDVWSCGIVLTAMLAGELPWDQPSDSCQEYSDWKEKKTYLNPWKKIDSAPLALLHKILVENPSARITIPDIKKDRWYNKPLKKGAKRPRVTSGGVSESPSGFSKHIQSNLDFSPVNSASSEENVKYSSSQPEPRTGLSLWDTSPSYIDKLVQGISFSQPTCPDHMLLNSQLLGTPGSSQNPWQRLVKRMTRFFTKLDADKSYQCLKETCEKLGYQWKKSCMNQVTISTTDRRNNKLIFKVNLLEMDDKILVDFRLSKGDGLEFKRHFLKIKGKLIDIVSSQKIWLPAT
Method: as §1

PAK1/CDC42 = PAK1/CDC42 (Homo sapiens (Human), UniProt Q13153); experiment: as above; assay type: biochemical; conditions: 1 μM compound, read-out: Percent enzyme activity inhibition, PAK1/CDC42
Method: as §1

AMPKA1/B1/G2 = AMPKA1/B1/G2 (Homo sapiens (Human), UniProt Q13131); experiment: as above; assay type: biochemical; conditions: 1 μM compound, read-out: Percent enzyme activity inhibition, AMPKA1/B1/G2
Method: as §1

[1] = Stability in buffer, plasma, and blood (LC-MS/MS); assay type: in vitro ADME, human; parameters: half-life: dose or concentration left out as unconfirmed
Method: Stability in buffer, plasma, and blood. Study was conducted by Absorption Systems. Studies were carried out in pH 7.4 phosphate buffer, mixed-gender human plasma (Lot #HMN330460), and mixed-gender human whole blood (Lot #HMN 381096). […] The plasma and blood were obtained from BioIVT and collected on sodium heparin. They were adjusted to pH 7.4 prior to initiating the experiments. […] Aliquots of the DMSO solution were dosed into 1 mL of matrix, which had been pre-warmed to 37° C., at a final concentration of […]. The vials were kept in a benchtop Thermomixer® for the duration of the experiment. Aliquots (100 μL) were taken at each time point (0, 15, 30, 60, and 120 minutes) and added to 96-well plates, which had been pre-filled with 300 μL of acetonitrile (ACN). Samples were stored at 4° C. until the end of the experiment. After the final time point was sampled, the plate was mixed and then centrifuged at 3,000 rpm for 10 minutes. Aliquots of the supernatant were removed, diluted 1:1 into distilled water, and analyzed by LC-MS/MS (Table 21). The peak area response ratio to internal standard (PARR) was compared to the PARR at time 0 to determine the percent of test article remaining at each time point. Half-lives were calculated using GraphPad software, fitting to a single-phase exponential decay equation.

Cl.Cl.NCC(C(=O)Nc1ccc2cnccc2c1)c1ccc(B(O)O)cc1 (centres unmarked) [Compound 10•2HCl]
inhibition at 1 µM (PKCa): 72% | inhibition at 1 µM (p38a): 0% | inhibition at 1 µM (AKT1): 55% | inhibition at 1 µM (CK1g1): 0% | inhibition at 1 µM (ROCK1): 98% | inhibition at 1 µM (Aurora A): 21% | inhibition at 1 µM (SYK): 2% | inhibition at 1 µM (CK2a1): 3% | inhibition at 1 µM (DAPK1): 20% | inhibition at 1 µM (GSK3b): 0% | inhibition at 1 µM (FGFR1): 35% | inhibition at 1 µM (IKKb): 0% | inhibition at 1 µM (MAPKAPK2): 30% | inhibition at 1 µM (CK1a1): 0% | inhibition at 1 µM (LCK): 0% | inhibition at 1 µM (MINK1): 3% | inhibition at 1 µM (CAMK4): 7% | inhibition at 1 µM (CHK1): 21% | inhibition at 1 µM (PAK1/CDC42): 0% | inhibition at 1 µM (AMPKA1/B1/G2): 58% | Percent Remaining ([1]; Buffer pH 7.4, 37° C., 0 min): 100% | Percent Remaining ([1]; Buffer pH 7.4, 37° C., 15 min): 102% | Percent Remaining ([1]; Buffer pH 7.4, 37° C., 30 min): 97% | Percent Remaining ([1]; Buffer pH 7.4, 37° C., 60 min): 101% | Percent Remaining ([1]; Buffer pH 7.4, 37° C., 120 min): 93% | half-life ([1]; both sexes, pH 7.4, human Plasma, 37° C.): > 120 min | half-life ([1]; both sexes, pH 7.4, human whole Blood, 37° C.): > 120 min | Percent Remaining ([1]; human Plasma, 37° C., 0 min): 100% | Percent Remaining ([1]; human Plasma, 37° C., 15 min): 82% | Percent Remaining ([1]; human Plasma, 37° C., 30 min): 106% | Percent Remaining ([1]; human Plasma, 37° C., 60 min): 83% | Percent Remaining ([1]; human Plasma, 37° C., 120 min): 91% | Percent Remaining ([1]; human whole Blood, 37° C., 0 min): 100% | Percent Remaining ([1]; human whole Blood, 37° C., 15 min): 92% | Percent Remaining ([1]; human whole Blood, 37° C., 30 min): 87% | Percent Remaining ([1]; human whole Blood, 37° C., 60 min): 100% | Percent Remaining ([1]; human whole Blood, 37° C., 120 min): 115% | half-life ([1]; pH 7.4 phosphate buffer, Buffer pH 7.4, 37° C.): > 120 min

From patent publication US12479866B2, “Boron-containing rho kinase inhibitors” (Percipiad, Inc., priority 2019, dated 2025)
